One assay has as its system pancreas. As to the kind of experiment: Pancreatic total cholesterol and lipids in acute pancreatitis models in WT mice. The format is in vivo, mouse. To be noted: Arg-AP, CER-AP or CDE-AP. As for the experimental part:
FIGS. 8A-8M show derangement of cholesterol metabolism in experimental pancreatitis. Characteristics of cholesterol metabolism were measured, as detailed in FIGS. 4A-4R, in pancreas of WT mice subjected to pancreatitis induced with cerulein (CER-AP), L-arginine (Arg-AP), or CDE diet (CDE-AP) (A, B, and E-G); ex vivo pancreatitis induced in WT mouse (C and I-M) or human acinar cells (D) with 100 nM CCK (CCK-AP) or 1 mM carbachol; and isolated pancreatic mitochondria (H). (B) Cholesterol ester (CE) heatmap; each column represents an individual mouse. (F) IB analysis of the indicated proteins. (G) LAL activity was measured by a fluorogenic assay (n=6 mice per condition). (H) Cholesterol content was measured by enzymatic assay. (I-M) Filipin colocalization with indicated proteins was quantified as detailed in FIGS. 2A-2L. Each symbol in A, C-E, and H represents an individual mouse, or cell or mitochondria preparation (n=3-15 per condition). Each symbol in J, K, and M corresponds to 20-30 cells in a different field (n=10-20 fields from 3 cell preparations per condition). Values are mean±SEM. *P<0.05, **P<0.01, ***P<0.001 vs. the same parameter in control/untreated pancreas, acinar cells or isolated mitochondria. Significance was determined by 2-tailed Student's t test (B, E, H, J, K, and M) or 1-way ANOVA followed by Tukey's multiple comparison test (A, C, and D). Scale bars: 10 μm.
Parameters of cholesterol metabolism were measured in (A, B, E, F) pancreas of mice subjected to pancreatitis induced with cerulean (CER-AP), L-arginine (Arg-AP), or combination of EtOH+palmitoleic acid (EtOH+POA); and (C) ex-vivo models on mouse and human acinar cells treated for 1 h with 100 nM CCK, […] or 500 μM TLCS. […] (B, C) Total cholesterol content was measured with cholesterol assay kit (Abcam, ab65390). […] Signficance was determined by 2-tailed student's t test. […]
Total cholesterol content was measured with Cholesterol Assay kit per manufacturer's instructions. […]
Triglycerides (TAG) content was measured using Triglyceride Assay kit. […]

The test system of another assay is LC3-II. As to the kind of experiment: Autophagic flux analysis: LC3-II immunoblot in pancreatic acinar cells. The format is cell-based, mouse. The note with it: 30 minutes. How it is done: FIGS. 2A-2L show Gnptab ablation stimulates autophagosome formation and blocks autophagic flux in pancreatic acinar cells. Parameters of autophagy were measured in WT and […] pancreatic (A-C) acinar cells and (D-L) tissue. (A-C) Acinar cells incubated for 30 minutes with and without bafilomycin A1 (BafA1; 20 nM); LC3-II band intensity was quantified by densitometry, normalized to ERK in the same sample, and LC3-II/ERK ratios further normalized to untreated WT cells (control). Values are mean±SEM; each symbol represents an individual cell preparation (n=4-6 per condition). sP<0.05; paired 2-tailed Student's t test. (D) IB analysis of autophagic markers/mediators. Ub, ubiquitylated proteins. (E-K) Immunofluorescence colocalization analysis for LC3 and LAMP1 (E, G, and H), and LC3 and Stx17 (F and I-K) in WT and KO pancreas. In this and other figures, colocalization was quantified with Volocity software using Manders-Costes (percentage colocalization) and Pearson's coefficients. Values are mean±SEM; each symbol corresponds to 20 to 30 cells in a different field (n=6-9 fields from 3 mice per condition). ***P<0.001 vs. WT; 2-tailed Student's t test. (L). EM showing abnormally large autolysosomes with partially degraded material in pancreas of KO mice. Scale bars: 10 μm (E and F) and 3 μm (L).
To further assess the effects of Gnptab KO on autophagy, autophagic flux analysis was performed by measuring changes in LC3-II in acinar cells incubated with and without the lysosomal v-ATPase inhibitor, bafilomycin A1 (BafA1) (FIG. 2, A-C). The number of autophagic vacuoles in a cell is a net balance between autophagosome formation and their degradation through autophagic flux. Thus, the increase in LC3-II observed in KO pancreas (FIG. 1F and FIG. 2D; see also FIG. 17G) could have resulted from both induction of autophagosome formation and the inhibition of flux. […]
Immunoblots were developed using enhanced chemiluminescence detection kit (Pierce), and band intensities were quantified by densitometry using FluorChem HD2 imaging system (Alpha Innotech/ProteinSimple).
(In general: In western blotting, separated proteins are transferred to a membrane and probed.)

For the next assay, the system named is neutral lipids. The experiment in a line: BODIPY 493/503 staining of neutral lipids in acinar cells. It counts as cell-based, mouse. The note with it: BafA1 20 nM. How it is done: FIGS. 13A-13G show neutral lipids accumulate in LE/Ly and autophagic compartments of Gnptab^−/− pancreas. Characteristics of neutral lipid metabolism were measured in (A-C,F,G) pancreatic tissue of WT, Gnptab^−/− (KO) and Atg5^Δpan mice, and (D,E) WT and KO acinar cells treated with Bafilomycin A1 (BafA1; 20 nM). (A) EM showing lipid inclusions in KO pancreas. (B-E) Tissue or cells were stained with BODIPY 493/503 for neutral lipids; BODIPY fluorescence intensity was quantified with Volocity software, normalized to the number of nuclei (DAPI) in the field, and expressed relative to WT control. […] (F,G) Perilipins (PLINs) were analyzed by immunoblot; their band intensities were densitometrically quantified, normalized to GAPDH in the same sample and, further, to WT. […] Significance was determined by 2-tailed Student's t test (G) or 1-way ANOVA followed by Tukey's multiple comparisons test (C,E). […]
All fluorescence images were acquired with a Zeiss LSM710 confocal microscope using x63 objective and preset within-experiment image acquisition settings. Quantitative fluorescence analysis was performed with Volocity software (PerkinElmer). Overlap between 2 fluorescent labels was measured using Manders-Costes coefficient. Pearson's colocalization coefficient was calculated if both immunolabeled proteins had the same (e.g. “dotted”) staining pattern.

The next assay deals with trypsin. As to the kind of experiment: Trypsin activity in Gnptab−/− acinar cells. The format is cell-based, mouse. To be noted: 3 hours; 50 μM CA-074Me or 20 nM BafA1. How it is done:
FIGS. 6A-6R show mechanisms mediating increased trypsin activity in Gnptab−/− pancreas. Trypsin activity and its regulation were analyzed in pancreatic (A, C, and D) tissue, (B and P-R) acinar cells, (E-H and O) lobules, and (I-N) subcellular fractions. In B, acinar cells were incubated for 3 hours without and with 20 nM BafAl or 50 μM CatB inhibitor CA-074Me; in P-R, with the cholesterol chelator methyl-β-cyclodextrin (MCD) at the indicated concentrations. In E-H, pancreatic lobules were double stained for TAP and LC3 or LAMP2; in O, for TAP and filipin. Quantitative colocalization analysis was done as detailed in FIG. 2. Each symbol in A, B, J-N, Q, and R represents an individual mouse or cell preparation (n=3-8 per condition). Each symbol in D, G, and H corresponds to 20 to 30 cells in a different field (n=9-20 fields from 3 WT and 3 KO mice or lobule preparations). Values are mean±SEM. **P<0.01, ***P<0.001 vs. WT tissue/lobules (A, G, and H) or corresponding WT subcellular fraction (K and M). ##P<0.01 vs. no inhibitors (B) or MCD (Q and R). ††P<0.01, †††P<0.001 vs. the other two fractions (L and N). Significance was determined by 2-tailed Student's t test (A, G, and H) or 1-way ANOVA followed by Tukey's multiple comparison test (B, K-N, Q, and R). Scale bars: 10 μm.
Activities of cathepsin (Cat) B and L, caspase-3, trypsin, and lysosomal acid lipase (LAL) were measured in pancreatic tissue or cell homogenates and subcellular fractions with fluorogenic assays using substrates specific for CatB (Z-Arg-Arg-AMC), CatL (Z-Phe-Arg-AMC), caspase-3-like ([…]), trypsin (Boc-Gln-Ala-Arg-AMC), as previously described (1-4, 6, 7); and for LAL (4-methylumbelliferyl oleate), as in (17). In measurements of CatL activity, the assay buffer also contained 50 μM CA-074me, a CatB inhibitor. LAL activity was measured in the absence and presence of the LAL inhibitor lalistat (100 μM) as the difference between these values (17).

The text below walks through data of US20260325485A1, “COMPOSITIONS AND METHODS FOR TREATING PANCREATITIS” (The United States Government as represented by the …, priority 2022, published 2026).

Turning to `N=C(N)NCCC[C@H](N)C(=O)O` [L-arginine], the “pancreatic total cholesterol, AP models” value with pancreas is on record as “increases”.

Consider `CO/C1=C\C(C)=C\[C@@H](C)[C@@H](O)[C@@H](C)C/C(C)=C/C=C/[C@H](OC)[C@@H]([C@@H](C)[C@@H](O)[C@H](C)[C@@]2(O)C[C@@H](O)[C@H](C)[C@@H](C(C)C)O2)OC1=O` [BafA1, bafilomycin A1], for which the “LC3-II levels in KO compared with WT in presence of BafA1” value with LC3-II (BafA1 20 nM, Gnptab−/− vs WT acinar cells) was “approximately 11 fold”. In the assay on LC3-II (Gnptab−/− (KO) acinar cells, 20 nM), the “LC3-II increase by BafA1, KO” value is listed as “no increase”. The “LC3-II increase by BafA1, WT” value in the assay on LC3-II (WT acinar cells, 20 nM) is “approximately 4 fold”. Further, the “BODIPY staining, KO” value in the assay with neutral lipids (Gnptab−/− acinar cells) is “no additional effect”. Also, the “BODIPY staining increase, WT” value in the assay with neutral lipids (WT acinar cells) is on record as “approximately 3 fold”. The “Reduction of trypsin activity, Gnptab−/− acinar cells” value with trypsin is on record as “by half”.
